The values below come from ChEMBL document CHEMBL3526141, “Characterization of human liver enzymes involved in the biotransformation of boceprevir, a hepatitis C virus protease inhibitor” (Drug Metab Dispos, 2011).

The test system of data set [1] is Liver cytosol. The experiment in a line: Ratio of Vmax to Km for drug metabolism in human liver cytosol assessed as (1R,2S,5S)-N-((2S,3R)-4-amino-1-cyclobutyl-3-hydroxy-4-oxobutan-2-yl)-3-((S)-2-(3-tert-butylureido)-3,3-dimethylbutanoyl)-6,6-dimethyl-3-azabicyclo[3.1.0]hexane-2-carboxamide formation per mg protein after 60 mins by LC-MS/MS/FSA method. Particulars: 1 h. It is filed as ADME.

For data set [2], the target named is Cytochrome P450 2C19 (Homo sapiens, UniProt P33261). The experiment in a line: Drug metabolism assessed as human CYP2C19-mediated compound formation from 5 uM [14C]boceprevir after 120 mins by LC-MS/FSA method relative to total [14C]boceprevir. Type of data set: ADME. Particulars: recombinant enzyme, 2 h.
In data set [3] the target is T1, Cytochrome P450 3A4 (Homo sapiens, UniProt P08684). Kind of data set: Drug metabolism assessed as human CYP3A4-mediated compound formation from 20 uM [14C]boceprevir after 120 mins by LC-MS/FSA method relative to total [14C]boceprevir. It is filed as ADME. Particulars: recombinant enzyme, 2 h.
For data set [4], the system named is Liver cytosol. Kind of data set: Drug metabolism in human liver cytosol assessed as (1R,2S,5S)-N-((2S,3R)-4-amino-1-cyclobutyl-3-hydroxy-4-oxobutan-2-yl)-3-((S)-2-(3-tert-butylureido)-3,3-dimethylbutanoyl)-6,6-dimethyl-3-azabicyclo[3.1.0]hexane-2-carboxamide formation after 60 mins by LC-MS/MS/FSA method. Type of data set: ADME, tissue-based. The following applies: 1 h.

Data set [5] addresses T2, Cytochrome P450 1A2 (Homo sapiens, UniProt P05177).
T2 sequence (P05177 whole entry): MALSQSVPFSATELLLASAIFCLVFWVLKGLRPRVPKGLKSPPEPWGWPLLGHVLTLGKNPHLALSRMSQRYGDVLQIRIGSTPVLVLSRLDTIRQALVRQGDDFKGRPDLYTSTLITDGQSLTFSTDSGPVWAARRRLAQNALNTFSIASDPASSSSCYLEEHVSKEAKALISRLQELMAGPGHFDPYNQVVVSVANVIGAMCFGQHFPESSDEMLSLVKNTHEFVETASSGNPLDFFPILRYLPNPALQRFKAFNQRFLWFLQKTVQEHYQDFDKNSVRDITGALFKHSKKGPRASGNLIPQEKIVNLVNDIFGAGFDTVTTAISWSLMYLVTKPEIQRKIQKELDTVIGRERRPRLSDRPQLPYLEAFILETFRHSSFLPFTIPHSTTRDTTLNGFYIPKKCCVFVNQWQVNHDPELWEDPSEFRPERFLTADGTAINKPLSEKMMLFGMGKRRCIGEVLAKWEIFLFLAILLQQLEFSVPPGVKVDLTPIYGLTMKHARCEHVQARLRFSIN
Kind of data set: (§1) Drug metabolism assessed as human […]-mediated compound formation from 5 uM [14C]boceprevir after 120 mins by LC-MS/FSA method relative to total [14C]boceprevir. Type of data set: ADME. Particulars: recombinant enzyme, 2 h.

For data set [6], the target named is T3, Cytochrome P450 1A1 (Homo sapiens, UniProt P04798).
T3 sequence (P04798 whole entry): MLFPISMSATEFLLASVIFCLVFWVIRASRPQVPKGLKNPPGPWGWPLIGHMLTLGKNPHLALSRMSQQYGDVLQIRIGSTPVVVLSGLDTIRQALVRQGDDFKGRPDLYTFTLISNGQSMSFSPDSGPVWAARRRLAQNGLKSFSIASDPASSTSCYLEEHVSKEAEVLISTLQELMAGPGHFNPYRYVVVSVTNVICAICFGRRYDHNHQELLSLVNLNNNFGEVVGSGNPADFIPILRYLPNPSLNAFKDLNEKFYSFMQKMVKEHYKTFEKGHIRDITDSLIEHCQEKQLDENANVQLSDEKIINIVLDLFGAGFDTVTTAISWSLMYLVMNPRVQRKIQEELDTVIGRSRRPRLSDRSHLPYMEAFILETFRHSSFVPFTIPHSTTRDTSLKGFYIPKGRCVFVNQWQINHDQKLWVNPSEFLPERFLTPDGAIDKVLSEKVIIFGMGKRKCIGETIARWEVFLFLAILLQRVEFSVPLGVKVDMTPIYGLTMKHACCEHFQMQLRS
The data set is described as §1. It is filed as ADME. The following applies: recombinant enzyme, 2 h.

Data set [7] is described as follows: Retention time of the compound by LC-MS/MS method. It is filed as physicochemical.
Data set [8] concerns the target T4, Cytochrome P450 3A5 (Homo sapiens, UniProt P20815). The experiment in a line: Drug metabolism assessed as human CYP3A5-mediated compound formation from 5 uM [14C]boceprevir after 120 mins by LC-MS/FSA method relative to total [14C]boceprevir. Type of data set: ADME. Particulars: recombinant enzyme, 2 h.
The target in data set [9] is Cytochrome P450 2D6 (Homo sapiens, UniProt P10635). The experiment in a line: Drug metabolism assessed as human CYP2D6-mediated compound formation from 5 uM [14C]boceprevir after 120 mins by LC-MS/FSA method relative to total [14C]boceprevir. Type of data set: ADME. Particulars: recombinant enzyme, 2 h.
Data set [10] concerns Liver cytosol. The experiment in a line: Drug metabolism in human liver cytosol assessed as (1R,2S,5S)-N-((2S,3R)-4-amino-1-cyclobutyl-3-hydroxy-4-oxobutan-2-yl)-3-((S)-2-(3-tert-butylureido)-3,3-dimethylbutanoyl)-6,6-dimethyl-3-azabicyclo[3.1.0]hexane-2-carboxamide formation per mg protein after 60 mins by LC-MS/MS/FSA method. Type of data set: ADME, tissue-based. The following applies: 1 h.

Data set [11] has as its target T1, Cytochrome P450 3A4. Kind of data set: Drug metabolism assessed as human CYP3A4-mediated compound formation from 5 uM [14C]boceprevir after 120 mins by LC-MS/FSA method relative to total [14C]boceprevir. Particulars: recombinant enzyme, 2 h. Type of data set: ADME.
In data set [12] the target is T5, Cytochrome P450 4F3 (Homo sapiens, UniProt Q08477).
T5 sequence (Q08477 whole entry): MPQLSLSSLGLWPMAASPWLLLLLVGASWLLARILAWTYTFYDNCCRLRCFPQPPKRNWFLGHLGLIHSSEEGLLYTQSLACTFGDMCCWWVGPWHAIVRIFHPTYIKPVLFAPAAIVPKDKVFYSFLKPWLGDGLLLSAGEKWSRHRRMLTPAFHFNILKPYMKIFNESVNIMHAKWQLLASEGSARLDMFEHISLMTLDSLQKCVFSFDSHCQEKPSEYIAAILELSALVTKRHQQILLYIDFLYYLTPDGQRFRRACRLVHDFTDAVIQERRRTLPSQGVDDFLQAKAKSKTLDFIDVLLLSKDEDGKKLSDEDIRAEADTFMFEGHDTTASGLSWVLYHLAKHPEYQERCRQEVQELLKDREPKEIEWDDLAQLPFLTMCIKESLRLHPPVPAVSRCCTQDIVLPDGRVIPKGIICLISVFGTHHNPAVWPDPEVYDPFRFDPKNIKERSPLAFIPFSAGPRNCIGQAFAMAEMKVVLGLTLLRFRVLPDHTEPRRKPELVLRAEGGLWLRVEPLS
Kind of data set: Drug metabolism assessed as human CYP4F3A-mediated compound formation from 5 uM [14C]boceprevir after 120 mins by LC-MS/FSA method relative to total [14C]boceprevir. It is filed as ADME. The following applies: recombinant enzyme, 2 h.

Data set [13] has as its system Liver microsome. Kind of data set: Drug metabolism in human liver microsomes treated with 5 uM [14C]boceprevir assessed as compound formation by LC-MS/FSA method relative to total [14C]boceprevir. Type of data set: ADME. A general note: Liver microsomes are vesicles of endoplasmic reticulum, rich in cytochrome P450 enzymes.
The test system of data set [14] is Plasma. The experiment in a line: Drug metabolism in human plasma treated with [14C]boceprevir assessed as ratio of drug level by LC-MS/MS method relative to boceprevir. It is filed as ADME, cell-free.
Data set [15] has as its target T6, Cytochrome P450 2B6 (Homo sapiens, UniProt P20813).
T6 sequence (P20813 whole entry): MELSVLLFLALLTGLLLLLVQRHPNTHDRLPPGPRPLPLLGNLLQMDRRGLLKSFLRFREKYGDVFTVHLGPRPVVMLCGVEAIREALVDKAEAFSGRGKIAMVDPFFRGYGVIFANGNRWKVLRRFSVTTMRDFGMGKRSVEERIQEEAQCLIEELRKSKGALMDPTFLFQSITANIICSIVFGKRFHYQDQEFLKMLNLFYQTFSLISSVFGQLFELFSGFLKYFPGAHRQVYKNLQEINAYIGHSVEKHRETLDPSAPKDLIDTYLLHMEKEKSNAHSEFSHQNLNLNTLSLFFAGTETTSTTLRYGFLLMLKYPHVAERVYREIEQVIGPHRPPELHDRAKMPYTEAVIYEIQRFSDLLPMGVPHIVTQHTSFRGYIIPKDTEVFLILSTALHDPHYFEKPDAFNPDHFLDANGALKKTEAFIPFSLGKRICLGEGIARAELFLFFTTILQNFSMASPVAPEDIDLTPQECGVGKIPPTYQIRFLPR
Kind of data set: Drug metabolism assessed as human CYP2B6-mediated compound formation from 5 uM [14C]boceprevir after 120 mins by LC-MS/FSA method relative to total [14C]boceprevir. Particulars: recombinant enzyme, 2 h. It is filed as ADME.

The subject of data set [16] is Liver microsome. The experiment in a line: Drug metabolism in human liver microsomes treated with 20 uM [14C]boceprevir assessed as compound formation by LC-MS/FSA method relative to total [14C]boceprevir. It is filed as ADME.
The target of data set [17] is T4, Cytochrome P450 3A5. The experiment in a line: Drug metabolism assessed as human CYP3A5-mediated compound formation from 20 uM [14C]boceprevir after 120 mins by LC-MS/FSA method relative to total [14C]boceprevir. Type of data set: ADME. Particulars: recombinant enzyme, 2 h.

The structures appear in SMILES notation.

T1 sequence (P08684 whole entry): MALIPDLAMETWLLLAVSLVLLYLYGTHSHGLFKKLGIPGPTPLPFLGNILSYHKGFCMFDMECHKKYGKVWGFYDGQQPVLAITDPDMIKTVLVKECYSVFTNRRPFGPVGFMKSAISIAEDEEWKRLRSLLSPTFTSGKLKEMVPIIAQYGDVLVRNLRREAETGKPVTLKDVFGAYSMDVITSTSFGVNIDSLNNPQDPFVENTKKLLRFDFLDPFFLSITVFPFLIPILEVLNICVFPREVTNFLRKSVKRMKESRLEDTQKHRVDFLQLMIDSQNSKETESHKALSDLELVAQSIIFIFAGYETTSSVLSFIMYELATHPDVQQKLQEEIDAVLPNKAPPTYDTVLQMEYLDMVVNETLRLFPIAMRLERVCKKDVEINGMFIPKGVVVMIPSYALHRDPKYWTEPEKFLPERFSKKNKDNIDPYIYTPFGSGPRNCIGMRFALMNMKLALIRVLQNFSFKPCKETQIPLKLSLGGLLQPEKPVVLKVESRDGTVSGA
T4 sequence (P20815 whole entry): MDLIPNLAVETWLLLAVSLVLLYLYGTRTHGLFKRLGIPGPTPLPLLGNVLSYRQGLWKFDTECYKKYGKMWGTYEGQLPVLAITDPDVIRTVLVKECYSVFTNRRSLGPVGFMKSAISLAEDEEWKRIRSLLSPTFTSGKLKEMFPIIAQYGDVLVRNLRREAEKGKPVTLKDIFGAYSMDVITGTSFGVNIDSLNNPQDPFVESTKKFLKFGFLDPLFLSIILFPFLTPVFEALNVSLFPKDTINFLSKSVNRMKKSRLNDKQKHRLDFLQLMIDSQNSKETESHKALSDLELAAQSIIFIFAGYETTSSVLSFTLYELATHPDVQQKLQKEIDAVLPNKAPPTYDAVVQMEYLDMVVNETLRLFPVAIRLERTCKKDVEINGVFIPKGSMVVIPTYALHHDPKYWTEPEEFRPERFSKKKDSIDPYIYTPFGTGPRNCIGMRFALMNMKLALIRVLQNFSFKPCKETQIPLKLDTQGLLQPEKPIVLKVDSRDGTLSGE
Sequence of Cytochrome P450 2C19 (P33261 whole entry): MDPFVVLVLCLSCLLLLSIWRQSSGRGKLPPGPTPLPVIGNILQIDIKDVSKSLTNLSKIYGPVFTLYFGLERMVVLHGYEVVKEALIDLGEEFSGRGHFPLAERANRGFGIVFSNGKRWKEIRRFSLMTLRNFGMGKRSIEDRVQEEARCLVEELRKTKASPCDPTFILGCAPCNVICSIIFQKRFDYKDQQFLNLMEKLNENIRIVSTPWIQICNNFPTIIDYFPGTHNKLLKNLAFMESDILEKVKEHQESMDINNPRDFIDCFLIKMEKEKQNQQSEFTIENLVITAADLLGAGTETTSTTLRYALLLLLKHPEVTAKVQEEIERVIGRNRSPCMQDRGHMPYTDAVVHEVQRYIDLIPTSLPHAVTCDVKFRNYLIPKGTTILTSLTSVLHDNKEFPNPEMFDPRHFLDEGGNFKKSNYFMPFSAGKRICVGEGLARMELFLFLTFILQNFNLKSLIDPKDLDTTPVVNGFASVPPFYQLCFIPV
Sequence of Cytochrome P450 2D6 (P10635 whole entry): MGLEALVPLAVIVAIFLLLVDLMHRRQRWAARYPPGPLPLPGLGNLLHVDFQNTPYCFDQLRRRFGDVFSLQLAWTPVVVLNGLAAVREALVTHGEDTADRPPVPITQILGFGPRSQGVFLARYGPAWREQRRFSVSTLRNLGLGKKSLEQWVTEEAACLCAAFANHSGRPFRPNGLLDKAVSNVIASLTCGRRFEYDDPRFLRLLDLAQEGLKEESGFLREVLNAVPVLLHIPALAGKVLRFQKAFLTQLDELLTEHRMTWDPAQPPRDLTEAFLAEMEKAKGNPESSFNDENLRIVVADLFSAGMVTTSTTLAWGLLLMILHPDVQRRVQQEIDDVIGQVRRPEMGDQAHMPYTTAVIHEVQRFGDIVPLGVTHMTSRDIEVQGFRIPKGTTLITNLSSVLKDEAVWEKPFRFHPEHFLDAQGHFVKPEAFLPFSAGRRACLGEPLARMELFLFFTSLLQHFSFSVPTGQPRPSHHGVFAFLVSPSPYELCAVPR

As for `CC(C)(C)NC(=O)N[C@H](C(=O)N1C[C@H]2[C@@H]([C@H]1C(=O)N[C@@H](CC1CCC1)C(=O)C(N)=O)C2(C)C)C(C)(C)C` [BOCEPREVIR], the Vmax/Km in data set [1] is 10.2 µL/min. In addition, the Compound recovery in [2] was 60.3%; in data set [3] it was 37.98%; in data set [5], 59.66%; in [6], 55.46%; in data set [8] it was 0.98%; in data set [9], 57.22%. The Compound recovery entry in data set [11] (BLD = below limit of detection) is “BLD”; in data set [12], 57.31%; in [13], 0.21%; in data set [14] it was “>= 50%”; in data set [15] it was 56.54%; in data set [16], 26.12%. In data set [17], the Compound recovery is recorded as 38.77%. The Km in data set [4] came out at 35.5 µM. This molecule also had a Retention_time in [7] of 42.8 min. Moreover, the Vmax in data set [10] worked out at 0.361 pmol/min.

In the case of `CC(C)(C)NC(=O)N[C@H](C(=O)N1C[C@H]2[C@@H]([C@H]1C(=O)O)C2(C)C)C(C)(C)C`, the Compound recovery was 0.29% in data set [2]; 0.58% in data set [3]; 0.29% in [5]; 0.33% in [6]; 2.22% in [8]; 4.57% in [11]. Besides, the Compound recovery is recorded as 0.24% in data set [12]; 4.2% in data set [13]; “<= 10%” in data set [14]; 0.22% in [15]; 1.1% in data set [16]; less than 0.81% in data set [17]. This molecule also showed a Retention_time in [7] of 16.6 min.

For orientation: Km means the concentration of substrate that gives half-maximal velocity. For orientation: Vmax means the rate approached at saturating substrate.
